This is an account of results in US7741436B2, “Biologically active peptides and their use for repairing injured nerves” (priority 2001, dated 2010).

The test system of experiment [1] is spinal cord injuries of adult male rats. Briefly: Spinal cord injuries of adult male rats: complete lumbar spinal cord transection, mini pump administration. Format: in vivo, Sprague-Dawley rats. The protocol: Complete transections of the lumbar spinal cord under deep pentobarbiturate anesthesia were made to 40 adult male Sprague-Dawley rats. Osmotic mini pumps were implanted subcutaneously to allow continuous flow of the KDI peptide (KDI-group) used at pre-tested concentrations (10-100 μg/ml) or a placebo (placebo-group). Morphine was given to both of the groups to alleviate the postoperative pain. The animals underwent weekly tests of their motor function during a period of three months. The motor score testing was carried out using a standard set of tests of motor evaluation (walking, tow-spread, placing and withdrawal). The mini pumps initially provided the drugs for 30 days, and when feasible, additional experiments were carried out with prolonged (up to 3 months) application. After 3 months, the animals in each group were euthanized and spinal cords were either deep frozen for immunocytochemistry, biochemistry and RNA-work, or fixed in 4% paraformaldehyde for in situ hybridization and histological analysis of recovery. […]
Preliminary motor scores were obtained from animals treated with KDI, and from control animals. […] The scores for each animal were calculated by adding up the walking scores obtained within a 12 week follow-up-time after the operation. […] The scores of six animals in placebo-group and six-animals, in the KDI-group were analysed and statistically compared. […]

Experiment [2] has as its system rat cerebellar granule neurons. Briefly: Electrophysiology: voltage-clamped whole-cell patch recordings of currents induced by laminin-1-derived peptides and fusion proteins. Format: cell-based. The settings on record: whole-cell patch clamp, neurons on laminin-1 substratum. An excerpt:
Sixteen-day pregnant Sprague-Dawley female rats were obtained from Taconic Farms, and maintained at the animal facility of National Institute of Alcohol Abuse and Alcoholism (NTH), fed with NTH-31 diet, containing 20,000 IU/kg vitamin A after autoclaving. The rats were allowed to give birth, and cerebellar tissues of 3-day-old female pups were aseptically isolated as described previously (Matsuzawa et al., 1996a). A suspension of single cells was obtained by trypsinizing the cerebella as described elsewhere (Liesi and Wright, 1996), after which 10^5 cells were plated on 22 mm glass coverslip pre-coated with laminin-1. The cells were incubated in an atmosphere of 95% air/5% CO2 at +37° C. in RPMI 1640 culture medium supplemented with penicillin and streptomycin and 200 μM L-glutamine. After 24 hrs, the cells were used for electrophysiology.
Recordings were done at room temperature using a List EPC-7 patch-clamp amplifier in voltage-clamped whole-cell patch configuration as described previously (Liesi and Wright, 1996). Pipettes were pulled from borosilicate glass and lightly fire polished. Experiments were performed at room temperature. Whole-cell currents were recorded on a Gould 2400S strip chart recorder. Cell membrane potential was clamped at −40 mV unless otherwise noted. All bath solutions were applied through pinch-valves that controlled the flow from multiple reservoirs to a single 200 μm ID barrel of fused silica. Standard bath solution was RPMI 1640, buffered with 10 mM HEPES (pH 7.4). The standard pipette solution contained (in mM): CsMeSO4 100, CsCl 15, BAPTA 5, HEPES 10 (pH KOH-adjusted to 7.2). Tests for reversal potentials were conducted in low K^+ bath solution containing (in mM): NaCl 150, KCl 5, CaCl2 1, HEPES 10 (pH adjusted to 7.2 with NaOH) and a high K^+ bath solution, containing (in mM): NaCl 115, KCl 40, CaCl2 1, HEPES 10 (pH adjusted to 7.2 with NaOH). All bath solutions contained 300 nM TTX. […] Nernst reversal potentials were calculated according to Hille (1992). […]
On the technique in general: In patch-clamp work, channel activity is measured electrically.

Regarding KDI, the “connective tissue scar at the dorsal pole of the spinal cord vs placebo” value in experiment [1] (adult rats three months after injury, stereomicroscopic images) was “considerably smaller”. Besides, the “mean motor score (sum of walking scores)” value in experiment [1] (rats with total spinal cord transection, 12 week follow-up, six animals, ±SEM, placebo 11±2.4, normal animal 120, P 0.0022, preliminary) came out at 78±5.8. Besides, the “induction of currents in cerebellar granule neurons” value in experiment [2] is given as “induced currents”.
